Test results: US10508120B2, “TYK2 inhibitors and uses thereof” (Nimbus Lakshmi, Inc., priority 2017, dated 2019)
Read-outs that look alike come from different tables or passages of the source.

Tests used:
[1] = target: human TYK2 (JH2domain-pseudokinase) (Homo sapiens (Human), UniProt P29597); experiment: TYK2 JH2 Domain Binding Assay (KINOMEscan)
Outline: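 Competition binding of a DNA-tagged fusion of human TYK2 JH2 pseudokinase (G556–D888) with NFkB DNA-binding domain, from HEK293 extracts (<0.1 nM final), against immobilised ligand beads; 1 h shaking at room temperature, 0.9% DMSO. Bound kinase quantified by qPCR.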

[2] = target: JAK2 kinase domain (JH1) (Homo sapiens (Human), UniProt O60674); experiment: JAK2 Radioactive Kinase Assay; format: biochemical; details: for inhibition at 10 µM: read-out: JAK2 JH1% Inhibition @ 10 μM
Chain of JAK2 kinase domain (JH1) (O60674 849-1124): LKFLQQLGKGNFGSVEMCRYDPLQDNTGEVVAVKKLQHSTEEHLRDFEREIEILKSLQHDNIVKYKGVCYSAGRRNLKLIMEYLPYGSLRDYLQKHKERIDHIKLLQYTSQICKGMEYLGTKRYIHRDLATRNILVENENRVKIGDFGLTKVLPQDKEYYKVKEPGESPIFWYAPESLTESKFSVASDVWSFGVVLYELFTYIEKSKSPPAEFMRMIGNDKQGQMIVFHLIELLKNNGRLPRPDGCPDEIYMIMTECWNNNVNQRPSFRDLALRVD
Outline: (§1)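 Single-point screen: 10 μM test compound, radioactive kinase read-out, percent inhibition reported for each kinase domain.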

[3] = target: Tyk2 kinase domain (DH1) (Homo sapiens (Human), UniProt P29597); experiment: Tyk2 Radioactive Kinase Assay; format: biochemical; details: for inhibition at 10 µM: read-out: Tyk2 JH1% Inhibition @ 10 μM
Chain of Tyk2 kinase domain (DH1) (P29597 897-1176): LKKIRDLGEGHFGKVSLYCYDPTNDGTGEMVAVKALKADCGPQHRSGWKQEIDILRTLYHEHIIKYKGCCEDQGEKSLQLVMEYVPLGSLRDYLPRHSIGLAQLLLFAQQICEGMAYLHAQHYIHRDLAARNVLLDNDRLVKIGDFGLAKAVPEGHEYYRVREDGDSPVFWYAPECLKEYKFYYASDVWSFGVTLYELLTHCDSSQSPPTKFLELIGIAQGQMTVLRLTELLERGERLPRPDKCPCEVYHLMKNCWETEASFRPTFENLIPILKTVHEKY
Outline: as §1

Chain of human TYK2 (JH2domain-pseudokinase) (P29597 556-888): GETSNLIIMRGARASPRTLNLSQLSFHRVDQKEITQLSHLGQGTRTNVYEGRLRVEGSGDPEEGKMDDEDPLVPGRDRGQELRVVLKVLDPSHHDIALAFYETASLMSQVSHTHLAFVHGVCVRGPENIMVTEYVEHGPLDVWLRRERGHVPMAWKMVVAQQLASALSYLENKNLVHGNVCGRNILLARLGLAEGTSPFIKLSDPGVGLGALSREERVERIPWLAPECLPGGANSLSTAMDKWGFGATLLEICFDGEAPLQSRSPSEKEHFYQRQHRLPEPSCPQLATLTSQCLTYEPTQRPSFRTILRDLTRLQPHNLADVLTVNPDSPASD

| Structure (SMILES) | Kd [1] [nM] | inhibition at 10 µM ([2]; 10 μM compound, 10 μM ATP) [%] | inhibition at 10 µM ([3]; 10 μM compound, 10 μM ATP) [%] | inhibition at 10 µM ([2]; compound at 10 μM, ATP 10 μM) [%] | inhibition at 10 µM ([3]; compound at 10 μM, ATP 10 μM) [%] | JAK2 JH1% Inhibition @ 10 μM ([2]; compound at 10 μM, ATP 10 μM) | Tyk2 JH1% Inhibition @ 10 μM ([3]; compound at 10 μM, ATP 10 μM) |
| --- | --- | --- | --- | --- | --- | --- | --- |
| CNc1cc(Nc2cc(Cl)cn(C3CCN(C)CC3)c2=O)nc2c(C(=O)N[C@H]3CC[C@@H]3O)cnn12 [I-931] | < 0.2 | < 50 | < 50 |  |  |  |  |
| CNc1cc(Nc2cccc([C@H]3CCCOC3)n2)nc2c(C(=O)NC3COCC3O)cnn12 (stereo partly drawn) [I-695, N-(4-hydroytetrahydrofuran-3-yl)-7-(methylamino)-5-((6-((R)-tetrahydro-2H-pyran-3-yl)pyridin-2-yl)amino)pyrazolo[1,5-a]pyrimidine-3-carboxamide] | < 0.2 |  |  | < 50 | < 50 |  |  |
| CNc1cc(Nc2cccn([C@H]3CCC[C@@H](OC)C3)c2=O)nc2c(C(=O)NC3CC3)cnn12 [I-622] | 0.2 to 1 |  |  | < 50 | < 50 |  |  |
| CNc1cc(Nc2cccnc2OC(F)(F)F)nc2c(C(N)=O)cnn12 [I-91] | < 0.2 |  |  | < 50 | < 50 |  |  |
| CNc1cc(Nc2cccc([C@H]3CCCOC3)n2)nc2c(C(=O)NC3CC3)cnn12 [I-549] | < 0.2 |  |  | < 50 | < 50 |  |  |
| CNc1cc(Nc2cccn(-c3cncc(F)c3)c2=O)nc2c(C(=O)N[C@@H]3C[C@@H]3F)cnn12 [I-968] | < 0.2 | < 50 | < 50 |  |  |  |  |
| CNc1cc(Nc2cccc3ocnc23)nc2c(C(=O)N[C@@H]3COC[C@@H]3O)cnn12 [I-833] | > 10 | < 50 | < 50 |  |  |  |  |
| CO[C@H]1C[C@@H](Oc2ncc(Cl)cc2Nc2cc(N)n3ncc(C(N)=O)c3n2)C1 [I-97] | 1 to 10 |  |  | < 50 | < 50 |  |  |
| CNc1cc(Nc2cccc([C@H]3CCCOC3)n2)nc2c(C(=O)N[C@@H]3CC[C@@H]3O)cnn12 [I-641] | 0.2 to 1 |  |  |  |  | A (percent inhibition at 10 μM lower than 50) | A (percent inhibition at 10 μM lower than 50) |
| CNc1cc(Nc2cccc(-c3cn(C)nc3F)n2)nc2c(C(=O)N[C@H]3CC[C@H]3O)cnn12 [I-948] | < 0.2 | < 50 | < 50 |  |  |  |  |
| CNc1cc(Nc2cccn(-c3cccnc3C)c2=O)nc2c(C(=O)NCC(C)(C)CO)cnn12 [I-850] | 1 to 10 | < 50 | < 50 |  |  |  |  |
| COc1ncccc1Nc1cc(NC2CC2)n2ncc(C(=O)NC3CC3)c2n1 [I-336, N-cyclopropyl-7-(cyclopropylamino)-5-((2-methoxypyridin-3-yl)amino)pyrazolo[1,5-a]pyrimidine-3-carboxamide] | 0.2 to 1 |  |  | < 50 | < 50 |  |  |
| CNc1cc(Nc2cccn(C3CCCOC3)c2=O)nc2c(C(=O)NCC(C)(C)CO)cnn12 (stereo not drawn) [I-571] | < 0.2 |  |  | < 50 | < 50 |  |  |
| NC(=O)c1cnn2c(N)cc(Nc3cccn(-c4ccon4)c3=O)nc12 [I-57] | 0.2 to 1 |  |  | < 50 | < 50 |  |  |
| CNc1cc(Nc2cccn([C@@H]3CCC[C@H](OC)C3)c2=O)nc2c(C(=O)NCC3(CO)CC3)cnn12 [I-929] | < 0.2 | < 50 | < 50 |  |  |  |  |
| NC(=O)c1cnn2c(N)cc(Nc3cc(N4CCCC4)nc(C(F)(F)F)c3)nc12 [I-120] | 1 to 10 |  |  | < 50 | < 50 |  |  |
| CNc1cc(Nc2cccc([C@H]3CCCOC3)n2)nc2c(C(=O)N[C@H]3COC[C@H]3O)cnn12 [I-692] | < 0.2 |  |  | < 50 | < 50 |  |  |
| CNc1cc(Nc2cccn(-c3nc(C)co3)c2=O)nc2c(C(=O)NC[C@@H](C)CO)cnn12 [I-737] | < 0.2 |  |  | < 50 | < 50 |  |  |
| CNc1cc(Nc2cccn(-c3ccnc(C)n3)c2=O)nc2c(C(=O)NC3CC3)cnn12 [I-125] | < 0.2 |  |  | < 50 | < 50 |  |  |

| Structure (SMILES) | Kd [1] [nM] | inhibition at 10 µM ([2]; 10 μM compound, 10 μM ATP) [%] | inhibition at 10 µM ([3]; 10 μM compound, 10 μM ATP) [%] | inhibition at 10 µM ([2]; compound at 10 μM, ATP 10 μM) [%] | inhibition at 10 µM ([3]; compound at 10 μM, ATP 10 μM) [%] | JAK2 JH1% Inhibition @ 10 μM ([2]; compound at 10 μM, ATP 10 μM) | Tyk2 JH1% Inhibition @ 10 μM ([3]; compound at 10 μM, ATP 10 μM) |
| --- | --- | --- | --- | --- | --- | --- | --- |
| CNc1cc(Nc2cccn([C@@H]3CC[C@H]3OC)c2=O)nc2c(C(=O)NC3CC3)cnn12 [I-1020] | 0.2 to 1 | < 50 | < 50 |  |  |  |  |
| CCCCn1cc(-c2cc(NC)n3ncc(C(=O)NC4CC4)c3n2)c2cccnc21 [I-477] | 0.2 to 1 |  |  | < 50 | < 50 |  |  |
| CNc1cc(-c2cn(CCN3CCCCC3)c3ncccc23)nc2c(C(=O)N[C@@H]3CC[C@H]3O)cnn12 [I-794] | < 0.2 |  |  | < 50 | < 50 |  |  |
| CNc1cc(Nc2cccn(C3CCCCC3)c2=O)nc2c(C(=O)NC[C@H](C)CO)cnn12 [I-1120] | 0.2 to 1 | < 50 | < 50 |  |  |  |  |
| CNc1cc(Nc2cc(F)cnc2OC(C)C)nc2c(C(=O)NC3CCC3)cnn12 [I-210] | 0.2 to 1 |  |  | < 50 | < 50 |  |  |
| CNc1cc(Nc2cccnc2OC)nc2c(C(=O)N[C@H]3CCC[C@@H]3O)cnn12 [I-449, (S)—N-((1S,2S)-2-hydroxycyclopentyl)-5-((2-methoxypyridin-3-yl)amino)-7-(methylamino) pyrazolo[1,5-a]pyrimidine-3-carboxamide] | 0.2 to 1 |  |  | < 50 | < 50 |  |  |
| CNC(=O)c1occc1Nc1cc(NC)n2ncc(C(=O)N[C@H]3CC[C@@H]3OC)c2n1 (stereo in doubt) [I-1111, N-(2-methoxycyclobutyl)-7-(methylamino)-5-((2-(methylcarbamoyl)furan-3-yl)amino)pyrazolo[1,5-a]pyrimidine-3-carboxamide] | < 0.2 | < 50 | < 50 |  |  |  |  |
| CNc1cc(Nc2cccn([C@H]3CC[C@@](C)(O)CC3)c2=O)nc2c(C(=O)NC3CC3)cnn12 [I-414] | 0.2 to 1 |  |  | < 50 | < 50 |  |  |
| CNc1cc(-n2cc(N3CCN(C)CC3)c3ncccc32)nc2c(C(=O)NC3CC3)cnn12 [I-574] | 1 to 10 |  |  | < 50 | < 50 |  |  |
| CNc1cc(Nc2cccn(C3CCCN(CCC#N)C3)c2=O)nc2c(C(=O)N[C@@H]3C[C@@H]3F)cnn12 (stereo partly drawn) [I-912] | 0.2 to 1 | < 50 | < 50 |  |  |  |  |
| CNc1cc(Nc2cc(Cl)cn(C3CCN(C)CC3)c2=O)nc2c(C(=O)N[C@H]3CC[C@H]3O)cnn12 [I-1006] | < 0.2 | < 50 | < 50 |  |  |  |  |
| CNc1cc(Nc2cccn([C@@H]3CC[C@@H]3O)c2=O)nc2c(C(=O)NC3CC3)cnn12 [I-1104] | < 0.2 | < 50 | < 50 |  |  |  |  |
| CNc1cc(Nc2cccn(-c3cnn(C[C@H]4CCOC4)c3)c2=O)nc2c(C(=O)NC3CC3)cnn12 [I-601] | < 0.2 |  |  | < 50 | < 50 |  |  |
| CNc1cc(Nc2cccn(-c3nn(C)c(C)c3C)c2=O)nc2c(C(=O)NC3CC3)cnn12 [I-504] | 0.2 to 1 |  |  | < 50 | < 50 |  |  |
| Cc1cc(Nc2cc(N)n3ncc(C(N)=O)c3n2)c(=O)n(-c2ccn(C)n2)c1 [I-34] | 0.2 to 1 |  |  | < 50 | < 50 |  |  |
| CNc1cc(Nc2cccn(-c3ncccc3F)c2=O)nc2c(C(=O)NCC(C)CO)cnn12 (stereo not drawn) [I-593, 5-((3′-fluoro-2-oxo-2H-[1,2′-b]pyridinyl-3-yl)amino)-N-(3-hydroxy-2-methylpropyl)-7-(methylamino)pyrazolo[1,5-a]pyrimidine-3-carboxamide] | < 0.2 |  |  | < 50 | < 50 |  |  |
| CNc1cc(Nc2cccn([C@@H]3CCCC[C@@H]3OC)c2=O)nc2c(C(=O)N[C@@H]3CC[C@H]3OC)cnn12 [I-1128] | 1 to 10 | < 50 | < 50 |  |  |  |  |
| CNc1cc(Nc2cc(Cl)cn([C@@H]3CCCN(C)C3)c2=O)nc2c(C(=O)N[C@@H]3C[C@@H]3F)cnn12 [I-853] | < 0.2 | < 50 | < 50 |  |  |  |  |
